Biological target: T1, SMYD3 (Homo sapiens, UniProt Q9H7B4)
T1 construct: Expressed full-length human His-tagged SMYD3 protein was purified from cell paste; His6 (cleaved yes); SUMO (with TEV site) (cleaved yes); made in house; host or cells: E. coli BL21 codonplus RIL
T1 sequence (Q9H7B4 1-428): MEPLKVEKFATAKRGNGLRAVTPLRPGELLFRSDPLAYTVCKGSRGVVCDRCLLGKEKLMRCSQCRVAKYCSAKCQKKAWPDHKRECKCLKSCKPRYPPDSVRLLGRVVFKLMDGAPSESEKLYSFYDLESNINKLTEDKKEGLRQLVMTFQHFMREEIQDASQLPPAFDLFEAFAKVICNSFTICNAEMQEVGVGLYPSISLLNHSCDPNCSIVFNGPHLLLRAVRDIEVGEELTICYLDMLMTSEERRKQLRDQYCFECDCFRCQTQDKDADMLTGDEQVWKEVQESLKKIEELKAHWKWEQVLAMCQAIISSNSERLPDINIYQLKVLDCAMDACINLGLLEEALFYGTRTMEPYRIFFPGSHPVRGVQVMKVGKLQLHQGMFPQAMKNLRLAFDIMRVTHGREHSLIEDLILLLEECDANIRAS
Test: SMYD3 Biochemical Assay (SMYD3 enzyme assay on MEKK2 protein substrate, 3H-SAM, scintillation proximity assay)
Conditions: read-out: SMYD3 Biochem IC50 (uM)*
Text: S-adenosylmethionine (SAM), S-adenosylhomocysteine (SAH), Tris, Tween20, dimethylsulfoxide (DMSO), bovine skin gelatin (BSG), and Tris(2-carboxyethyl)phosphine hydrochloride solution (TCEP) were purchased from Sigma-Aldrich at the highest level of purity possible. ^3H-SAM was purchase from American Radiolabeled Chemicals with a specific activity of 80 Ci/mmol.
This protein was expressed in High Five insect cells and purified to >85% purity. Protein identity was confirmed by MS/MS analysis after proteolytic digestion. The protein sequence used was:
Full-length human SMYD3 isoform 1 (BAB86333) was inserted into a modified pET21b plasmid containing a His6 tag and TEV and SUMO cleavage sites.
Transformed cells were grown and selected on LB agar with 100 μg/mL ampicillin and 17 μg/mL chloramphenicol at 37° C. overnight. A single clone was used to inoculate 200 mL of LB medium with 100 μg/mL ampicillin and 17 μg/mL chloramphenicol and incubated at 37° C. on an orbital shaker at 180 rpm. […] Once OD600 reached about 0.4, IPTG was added to a final concentration of 0.1 mM and the cells were grown overnight at 15° C. and 160 rpm. Cells were harvested by centrifugation at 8000 rpm, for 4 minutes at 4° C. and stored at −80° C. for purification. […]

IC50: 0.883 µM
SMILES: NCCC(=O)N(CCN)[C@H]1CC[C@H](NC(=O)c2cc(C3CC3)on2)CC1 [compound 35, N-((1r,4r)-4-(3-amino-N-(2-aminoethyl)pro-panamido)cyclo-hexyl)-5-cyclo-propylisoxazole-3-carboxamide]
